“Also recorded” adds a separate entry of the source. Like-named read-outs stand apart in the source and are kept apart here.
What was measured:
[1] = Stability in rat plasma under storage conditions; format: in vitro ADME; settings: for stability in plasma, accuracy: n=5
Procedure: The stability of HY-071085 in rat plasma was evaluated by analyzing five repeated QC samples under various storage conditions: long-term freezing (freezing at −80 °C for 30 days), repeated freezing and thawing (thawing with a 37 °C water bath after freezing at −80 °C, repeated three times), normal temperature placement (a 37 °C constant temperature water bath for 8 h), and injector placement (4 °C for 24 h).

[2] = Excretion in feces, urine and bile (material balance) in rats; format: in vivo, Sprague Dawley rats
Procedure: After the single-dose intragastric administration of HY-071085 (6.5 mg/kg) to male and female rats, their feces, urine and bile were collected at various time points within 24 h in order to analyze the excretion of HY-071085. The amount of unchanged parent compound recovered from the feces, urine and bile was negligible in rats (about 1.3% of the dose, Table 3).
Excretion in urine and feces (rats): The Sprague Dawley rats were aged approximately 6 weeks old and weighed 185–212 g at the onset of treatment. Urine and fecal samples were collected for the excretion study using metabolic cages. After the oral administration of 6.5 mg/kg HY-071085, urine and feces were collected at 0–6, 6–12 and 12–24 h. The urine volumes were recorded and transferred to centrifuge tubes. The fecal weights were recorded at each sampling period, and then those feces were dried, ground and mixed thoroughly. Then, 0.1 g feces was accurately weighed, mixed with 1 mL deionized water, and homogenized to be used as a fecal sample. All of the samples were stored at –80 °C until the analysis.
Excretion in bile (rats): The Sprague Dawley rats were approximately 6 weeks old and weighed 174–215 g at the onset of treatment. The rats were anesthetized with diethyl ether, and the bile duct was then cannulated for bile collection. After allowing recovery from surgery and anesthesia, these bile duct–cannulated rats were administered a single 6.5 mg/kg dose of HY-071085 by gastric gavage.

[3] = set-up: method as in earlier work; settings: Temp 25℃; cited from earlier work
[4] = Pharmacokinetics after repeated-dose intragastric administration in rats; format: in vivo, Sprague Dawley rats; settings: for CL/F at 14 days / MRT at 14 days / CL/F at 28 days / MRT at 28 days / Tmax at 14 days / Cmax at 14 days / half-life at 14 days / Vd/F at 14 days / Cmax at 28 days / Tmax at 28 days / half-life at 28 days / Vd/F at 28 days / AUC(0-inf) / AUC: rat, plasma, po, R-IG 6.5 mg/kg; for Vd/F at 14 days / Vd/F at 28 days: read-out: Vss/F; for decrease of plasma exposure level compared with single administration / AUC(0-inf) / AUC: 6.5 mg/kg; for decrease of plasma exposure level compared with single administration: after 28 days of continuous administration; for plasma drug exposure level as % of the single dose: 28th day of intragastric administration; for AUC: read-out: AUC0-tn
Procedure: Male and female rats were given HY-071085 (6.5 mg/kg) by gastric gavage twice a day for 28 days. […] After 28 days of continuous administration, the plasma exposure levels of the male and female rats decreased by 49% and 85%, respectively, compared with that after a single administration (Figure 6).
In vivo PK profiling in the rats: Sprague Dawley rats (approximately 177–221 g in weight) were purchased from Shanghai Xipur-Bikai Experimental Animal Co., Ltd. (Shanghai, China). Before the experiment, several rats were randomly divided into several groups, half males and half females in each group, fasting but free to drink water for 12 h. The dosage of the rats was dependent on the drug pharmacology: the HY-071085 active pharmaceutical ingredients were administered with a dosage volume of 0.25 mL/100 g body weight. The whole-blood samples were centrifuged at 8000 rpm for 5 min, and the plasma samples were separated and stored at –80 °C until the analysis.
According to the obtained plasma concentration time data, the pharmacokinetic parameters were calculated using Phoenix WinNonlin 8.1 software. The pharmacokinetic parameters—i.e., the area under the curve (AUC), mean residence time (MRT), clearance rate (Cl/F) and steady-state apparent distribution volume (Vss/F)—were calculated by the method of moments, which was estimated according to the following formulae: AUCtn=∑Ci+Ci−1ti−ti−1/2 AUC∞=AUCtn+Cm/λ AUMCtn=∑tiCi+ti−1Ci−1ti−ti−1/2 AUMC∞=AUMCtn+Ctntn/λ+1/λ^2 MRT=AUMC∞/AUC∞ Cl/F=Dose/AUC Vss/F=Cl∗MRT where Ctn is the plasma concentration of tn at the last point after administration, and the elimination rate constant was obtained by ln(concentration) time linear regression.
Due to the drug having significant individual differences in rats, it could not be uniformly fitted with a PK atrioventricular model; as such, the pharmacokinetic parameters analyzed in this study were calculated using a non-atrioventricular model. The pharmacokinetic parameters are defined as follows: Cmax is the maximum blood concentration after administration and absorption, Tmax is the time required to reach Cmax, t1/2 is the time required to eliminate half of the plasma drug concentration after the drug distribution in the body reaches equilibrium, Cl/F is the apparent clearance rate, AUC0-tn is the area under the blood concentration time curve within the dosing interval, AUC0-∞ is the area under the plasma concentration time curve from 0 to infinity, MRT is the average time that all drug molecules stay in the body, and Vss/F is the steady-state apparent distribution volume, which is the product of the clearance rate and average residence time.

[5] = Plasma protein binding, dog plasma; format: in vitro ADME; settings: read-out: plasma protein binding rate (converted)
Procedure: The PPB rate in dogs was about 40% at different concentrations in the concentration range (50–400 ng/mL), and in rats it was about 75%. The PPB rate in human plasma varied greatly at different concentrations, ranging from 100% at a low drug concentration to 58% at a high drug concentration, as shown in Table 4.

[6] = set-up: method as in earlier work; settings: cited from earlier work
[7] = gavage 6.5 mg/kg, within 24 h, % of the dose
[8] = Sprague Dawley, female rats, 14 days
[9] = Sprague Dawley, female rats, 28 days
[10] = Sprague Dawley, male rats, 14 days
[11] = Sprague Dawley, male rats, 28 days
[12] = Sprague-Dawley, female rats, 14 days
[13] = Sprague-Dawley, female rats, 28 days
[14] = Sprague-Dawley, male rats, 14 days
[15] = Sprague-Dawley, male rats, 28 days
[16] = female, Sprague Dawley, female rats, 14 days
[17] = female, Sprague Dawley, female rats, 28 days
[18] = male, Sprague Dawley, male rats, 14 days
[19] = male, Sprague Dawley, male rats, 28 days

Compound: CC1(C)OC2CC(=O)OCC23C1C/C(=N\OCCN1CCOCC1)C1(C)C3CC[C@@]2(C)[C@H](c3ccoc3)OC(=O)C3OC312 (stereo partly drawn) [HY-071085, (12S,12aS,E)-12-(furan-3-yl)-6,6,8a,12a-tetramethyl-8-((2-morpholinoethoxy)imino)dodecahydro-1H,3H-oxireno [2,3-d]pyrano [4’,3’:3,3a]isobenzofuro [5,4-f]isochromene-3,10(9aH)-dione]
- stability in plasma, accuracy ([1]; injector (24h, 4 °C), 2 ng/mL): 105.00%
- stability in plasma, accuracy ([1]; injector (24h, 4 °C), 800 ng/mL): 101.55%
- stability in plasma, accuracy ([1]; long-term freezing (−80 °C, 30 days), 2 ng/mL): 112.40%
- stability in plasma, accuracy ([1]; long-term freezing (−80 °C, 30 days), 800 ng/mL): 101.50%
- stability in rat plasma ([1]; long-term freezing, repeated freezing and thawing, 37 °C 8 h, injector 4 °C 24 h): stable
- stability in plasma, accuracy ([1]; normal temperature (8h), 2 ng/mL): 105.90%
- stability in plasma, accuracy ([1]; normal temperature (8h), 800 ng/mL): 97.70%
- stability in plasma, accuracy ([1]; repeated freeze-thaw (three times), 2 ng/mL): 97.40%
- stability in plasma, accuracy ([1]; repeated freeze-thaw (three times), 800 ng/mL): 97.33%
- route of elimination ([2]; excretion and material balance): mainly eliminated as metabolites; also recorded: mainly eliminated by metabolism
- HY-071085 prototype recovered in bile ([2]; gavage 6.5 mg/kg, bile 0~8 h, % of the dose): 0.206 ± 0.206%
- HY-071085 prototype recovered in feces [2, 7]: 0.812 ± 0.611%
- HY-071085 prototype recovered in urine [2, 7]: 0.254 ± 0.164%
- logP [3]: 2.8023
- CL/F at 14 days [4, 8]: 630 mL/min/kg
- MRT at 14 days [4, 8]: 2.18 ± 0.27 h
- CL/F at 28 days [4, 9]: 1730 mL/min/kg
- MRT at 28 days [4, 9]: 2.54 ± 1.15 h
- CL/F at 14 days [4, 10]: 836 mL/min/kg
- Tmax at 14 days [4, 10]: 0.65 ± 0.38 h
- CL/F at 28 days [4, 11]: 1860 mL/min/kg
- MRT at 28 days [4, 11]: 1.74 ± 0.86 h
- Cmax at 14 days [4, 12]: 125 ± 80.3 ng/mL
- Tmax at 14 days [4, 12]: 0.68 ± 0.75 h
- half-life at 14 days [4, 12]: 1.38 ± 0.24 h
- Vd/F at 14 days [4, 12]: 80 ± 51 L/kg
- Cmax at 28 days [4, 13]: 37.2 ± 19.9 ng/mL
- Tmax at 28 days [4, 13]: 0.33 ± 0.16 h
- half-life at 28 days [4, 13]: 1.75 ± 1.14 h
- Vd/F at 28 days [4, 13]: 292 ± 251 L/kg
- Cmax at 14 days [4, 14]: 63.2 ± 11.2 ng/mL
- MRT at 14 days [4, 14]: 2.26 ± 0.33 h
- half-life at 14 days [4, 14]: 1.52 ± 0.23 h
- Vd/F at 14 days [4, 14]: 108 ± 13.8 L/kg
- Cmax at 28 days [4, 15]: 38.9 ± 12.7 ng/mL
- Tmax at 28 days [4, 15]: 0.6 ± 0.78 h
- half-life at 28 days [4, 15]: 1.11 ± 0.41 h
- Vd/F at 28 days [4, 15]: 169 ± 35.2 L/kg
- decrease of plasma exposure level compared with single administration ([4]; female rats): 85%
- plasma drug exposure level as % of the single dose ([4]; female rats): about 15%
- AUC(0-inf) [4, 16]: 233 ± 159 ng·h/mL
- AUC [4, 16]: 229 ± 159 ng·h/mL
- AUC(0-inf) [4, 17]: 70.2 ± 28.8 ng·h/mL
- AUC [4, 17]: 65.8 ± 28.9 ng·h/mL
- decrease of plasma exposure level compared with single administration ([4]; male rats): 49%
- plasma drug exposure level as % of the single dose ([4]; male rats): about 50%
- AUC(0-inf) [4, 18]: 133 ± 22.3 ng·h/mL
- AUC [4, 18]: 127 ± 22.4 ng·h/mL
- AUC(0-inf) [4, 19]: 59.9 ± 10.5 ng·h/mL
- AUC [4, 19]: 55 ± 8.82 ng·h/mL
- fraction unbound at 50 ng/mL ([5]; 50 ng/mL, mean): 0.622
- fraction unbound at 100 ng/mL ([5]; 100 ng/mL, mean): 0.671
- fraction unbound at 200 ng/mL ([5]; 200 ng/mL, mean): 0.578
- fraction unbound at 400 ng/mL ([5]; 400 ng/mL, mean): 0.545
- fraction unbound ([5]; dog, dogs, concentration range 50–400 ng/mL): ~0.6
- pKa [6]: 6.11
